# Laboratory results from patent EP4667476A1, “NOVEL MITOCHONDRIA-TARGETING COMPOUNDS” (THE CATHOLIC UNIVERSITY OF KOREA INDUSTRY-ACADEMIC …, priority 2023, dated 2024).
# System: PD-L1
# Experiment: PD-L1 expression in gastric cancer cells by flow cytometer
# Assay type: cell-based
# Settings: AGS; metformin at a concentration 50 times higher than that of JH-001 (FIG. 8)
# Protocol: After treating an AGS cell line, a gastric cancer cell line, with JH-001 for each concentration, the expression of PD-L1, an immunocompromised marker, was confirmed using a flow cytometer. […] In addition, metformin, known as a mitochondria-targeting drug, was treated at a concentration 50 times higher than that of JH-001 and the expression level of PD-L1 was confirmed. As a result, it was confirmed that JH-001 according to the present disclosure inhibited PD-L1 expression about 2 times higher than metformin treatment, even though JH-001 was treated at a much lower concentration (FIG. 8).
structure (smiles),measurement,value
"CN(CCCNC(=O)CCCCC[P+](c1ccccc1)(c1ccccc1)c1ccccc1)C(=N)NC(=N)N [JH-001, (6-((3-(3-carbamimidoyl-1-methylguanidino)propyl)amino)-6-oxohexyl)triphenylphosphonium]",inhibition of PD-L1 expression relative to metformin treatment,about 2 times
